According to ChEMBL document CHEMBL1201862, “PubChem BioAssay data set” (2004):
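Growth conditions: 96-well plates. Treatment: test compound, 48 hours, 5 concentrations. Analysis: linear interpolation between bracketing concentrations; unreached endpoints set to highest concentration. GI50 = concentration required for 50% inhibition of growth.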 The source made the active and inactive calls. Cut-off read from the data, not from the text of the source: active = GI50 up to about 1.1 µM and inactive = higher.

How the values were obtained:
Test in all cases: NCI-60 cell line screen, 48 h
[1] = test system: LOX IMVI
[2] = test system: SW-620
[3] = test system: HOP-62
[4] = test system: CCRF-CEM
[5] = test system: Hs-578T
[6] = test system: TK-10
[7] = test system: SNB-75
[8] = test system: KM12
[9] = test system: OVCAR-3
[10] = test system: NCI-H522
[11] = test system: Malme-3M
[12] = test system: EKVX
[13] = test system: HCT-116
[14] = test system: SR
[15] = test system: U-251
[16] = test system: HCT-15
[17] = test system: OVCAR-8
[18] = test system: HOP-92
[19] = test system: OVCAR-4
[20] = test system: HT-29
[21] = test system: UO-31
[22] = test system: ACHN
[23] = test system: K562
[24] = test system: BT-549
[25] = test system: IGROV-1
[26] = test system: 786-0
[27] = test system: UACC-257
[28] = test system: SK-MEL-2
[29] = test system: SF-268
[30] = test system: PC-3
[31] = test system: HCC 2998
[32] = test system: HL-60
[33] = test system: A549
[34] = test system: MDA-MB-435
[35] = test system: SF-295
[36] = test system: SK-MEL-5
[37] = test system: RXF 393
[38] = test system: NCI-H460
[39] = test system: MCF7
[40] = test system: SK-OV-3
[41] = test system: MDA-N
[42] = test system: M14
[43] = test system: SF-539
[44] = test system: SN12C
[45] = test system: SNB-19
[46] = test system: NCI-H226
[47] = test system: RPMI-8226
[48] = test system: OVCAR-5
[49] = test system: SK-MEL-28
[50] = test system: MDA-MB-231
[51] = test system: UACC-62
[52] = test system: NCI-H23
[53] = test system: MOLT-4
[54] = test system: CAKI-1
[55] = test system: COLO 205
[56] = test system: A498
[57] = test system: T47D
[58] = test system: NCI/ADR-RES
[59] = test system: DU-145

In the case of `CCc1c(C)c(C#N)c(=S)n(C2OC(COC(C)=O)C(OC(C)=O)C(OC(C)=O)C2OC(C)=O)c1-c1ccccc1` (stereo not drawn), the GI50 [1] was > 31.6 µM (inactive), the GI50 [2] was > 100 µM (inactive) and the GI50 [3] was 15.8 µM (inactive). For the same molecule, the GI50 [4] was 33.7 µM (inactive), the GI50 [5] was 20.7 µM (inactive) and the GI50 [6] was 22.1 µM (inactive). The GI50 [7] was 1.84 µM (inactive), the GI50 [8] was > 31.6 µM (inactive) and the GI50 [9] was > 31.6 µM (inactive). For the same molecule, the GI50 [10] was 26.1 µM (inactive), the GI50 [11] was > 31.6 µM (inactive) and the GI50 [12] was 97.9 µM (inactive). For the same molecule, the GI50 [13] was 26.7 µM (inactive), the GI50 [14] was > 31.6 µM (inactive) and the GI50 [15] was 17.3 µM (inactive). The GI50 [16] was > 31.6 µM, the GI50 [17] was > 31.6 µM (inactive) and the GI50 [18] was 22.1 µM (inactive). The GI50 [19] was > 31.5 µM (inactive), the GI50 [20] was > 31.6 µM (inactive) and the GI50 [21] was > 24.6 µM (inactive). For the same molecule, the GI50 [22] was 23.7 µM (inactive), the GI50 [23] was 21.1 µM (inactive) and the GI50 [24] was 52.1 µM (inactive). For the same molecule, the GI50 [25] was 23.7 µM (inactive), the GI50 [26] was 20.7 µM (inactive) and the GI50 [27] was > 31.6 µM (inactive). For the same molecule, the GI50 [28] was 21.8 µM (inactive), the GI50 [29] was > 31.6 µM (inactive) and the GI50 [30] was > 10 µM (inactive). For the same molecule, the GI50 [31] was > 31.6 µM (inactive), the GI50 [32] was > 100 µM (inactive) and the GI50 [33] was > 31.6 µM (inactive). For the same molecule, the GI50 [34] was > 31.6 µM (inactive), the GI50 [35] was 16.2 µM (inactive) and the GI50 [36] was > 31.6 µM (inactive). The GI50 [37] was > 10 µM (inactive), the GI50 [38] was > 31.6 µM (inactive) and the GI50 [39] was > 31.6 µM (inactive). For the same molecule, the GI50 [40] was > 10 µM (inactive), the GI50 [41] was > 31.6 µM (inactive) and the GI50 [42] was > 31.6 µM (inactive). For the same molecule, the GI50 [43] was 23.6 µM (inactive), the GI50 [44] was > 31.6 µM (inactive) and the GI50 [45] was > 10 µM (inactive). The GI50 [46] was 18.5 µM (inactive), the GI50 [47] was 82 µM (inactive) and the GI50 [48] was > 31.6 µM (inactive). For the same molecule, the GI50 [49] was > 31.6 µM (inactive), the GI50 [50] was 28.4 µM (inactive) and the GI50 [51] was > 10 µM (inactive). For the same molecule, the GI50 [52] was > 31.6 µM (inactive), the GI50 [53] was > 31.6 µM (inactive) and the GI50 [54] was 72.3 µM (inactive). The GI50 [55] was > 31.6 µM (inactive), the GI50 [56] was 14.6 µM (inactive) and the GI50 [57] was > 31.6 µM (inactive). The GI50 [58] was > 31.6 µM (inactive) and the GI50 [59] was > 31.6 µM (inactive).
For `Clc1ccc(COc2ccccc2/C=N/c2c(-c3ccco3)nc3ccccn23)c(Cl)c1`, the GI50 [1] was 17.1 µM (inactive), the GI50 [2] was 26.2 µM (inactive) and the GI50 [3] was 32.9 µM (inactive). For the same molecule, the GI50 [4] was 12.9 µM (inactive), the GI50 [5] was 36.9 µM (inactive) and the GI50 [6] was 36.2 µM (inactive). The GI50 [7] was 23.4 µM (inactive), the GI50 [8] was 36.8 µM (inactive) and the GI50 [9] was 37.8 µM (inactive). The GI50 [10] was > 100 µM (inactive), the GI50 [11] was 36.5 µM (inactive) and the GI50 [12] was 17.4 µM (inactive). For the same molecule, the GI50 [13] was 17.5 µM (inactive), the GI50 [14] was 10.2 µM (inactive) and the GI50 [15] was 33.7 µM (inactive). The GI50 [16] was 23.3 µM, the GI50 [17] was 26.5 µM (inactive) and the GI50 [18] was 13 µM (inactive). The GI50 [19] was 24.9 µM (inactive), the GI50 [20] was 31.9 µM (inactive) and the GI50 [21] was 39.3 µM (inactive). For the same molecule, the GI50 [22] was > 100 µM (inactive), the GI50 [23] was 28.4 µM (inactive) and the GI50 [24] was 30 µM (inactive). The GI50 [25] was 25.2 µM (inactive), the GI50 [26] was 28.2 µM (inactive) and the GI50 [27] was 39.1 µM (inactive). For the same molecule, the GI50 [28] was 20.2 µM (inactive), the GI50 [29] was 39.3 µM (inactive) and the GI50 [30] was 39.8 µM (inactive). For the same molecule, the GI50 [31] was 95.9 µM (inactive), the GI50 [32] was 27 µM (inactive) and the GI50 [33] was > 100 µM (inactive). For the same molecule, the GI50 [34] was 14.5 µM (inactive), the GI50 [35] was 39.9 µM (inactive) and the GI50 [36] was 15.8 µM (inactive). The GI50 [37] was 20.9 µM (inactive), the GI50 [38] was 71 µM (inactive) and the GI50 [39] was 12.5 µM (inactive). For the same molecule, the GI50 [40] was > 100 µM (inactive), the GI50 [41] was 23 µM (inactive) and the GI50 [42] was 26.1 µM (inactive). For the same molecule, the GI50 [43] was 21.1 µM (inactive), the GI50 [44] was 25.8 µM (inactive) and the GI50 [45] was 44.1 µM (inactive). For the same molecule, the GI50 [46] was 25.7 µM (inactive), the GI50 [47] was 29.9 µM (inactive) and the GI50 [48] was > 100 µM (inactive). The GI50 [49] was 66.4 µM (inactive), the GI50 [50] was 20.2 µM (inactive) and the GI50 [51] was 33.3 µM (inactive). For the same molecule, the GI50 [52] was 32.3 µM (inactive), the GI50 [53] was 31.9 µM (inactive) and the GI50 [54] was 32.5 µM (inactive). The GI50 [55] was 38.9 µM (inactive), the GI50 [56] was > 100 µM (inactive) and the GI50 [57] was 24.7 µM (inactive). For the same molecule, the GI50 [58] was 30.6 µM (inactive) and the GI50 [59] was 25.8 µM (inactive).
